Assay results as given in ChEMBL document CHEMBL5380835, “Discovery of Clinically Used Octenidine as NRAS Repressor That Effectively Inhibits NRAS-Mutant Melanoma” (J Med Chem, 2023).
Calls of active or inactive are those of the source. The rule behind the calls is not given here.

How the values were obtained:
SK-MEL-2 [1] = assay: Antitumor activity against human SK-MEL-2 cells xenografted in BALB/c nude mouse assessed as tumor growth inhibition at 10 mg/kg/day, ip by electronic caliper method; format: functional, organism-based; details: time 30.0 day, TDE = time-dependent effect
SK-MEL-2 [2] = assay: Antitumor activity against human SK-MEL-2 cells xenografted in BALB/c nude mouse assessed as tumor growth inhibition at 10 mg/kg/day, ip administered for 30 days relative to control; format: functional; details: SK-MEL-2, 720 h, time 30 day, read-out: TGI
SK-MEL-2 [3] = assay: Antitumor activity against human SK-MEL-2 cells xenografted in BALB/c nude mouse assessed as reduction in tumor weight at 10 mg/kg/day, ip administered for 30 days by electronic caliper method; format: functional, organism-based; details: time 30.0 day
SK-MEL-2 [4] = assay: Antitumor activity against human SK-MEL-2 cells xenografted in BALB/c nude mouse assessed as T/C ratio at 10 mg/kg/day, ip administered for 30 days relative to control; format: functional; details: time 30 day

CN(C)/N=N/c1[nH]cnc1C(N)=O [DACARBAZINE]
Activity (SK-MEL-2 [1]): Tde | inhibition in vivo at 10 mg/kg/day (SK-MEL-2 [2]): 57.7% | Activity (SK-MEL-2 [3]): Active | T/C (SK-MEL-2 [4]): 28.9%
